According to US20240350454A1, “BACTERIAL EFFLUX PUMP INHIBITORS AND METHODS OF USE” (THE REGENTS OF THE UNIVERSITY OF COLORADO, priority 2021, published 2024):

What was measured:
Format in all cases: cell-based
[1] = tested on: P. aeruginosa Focus MB0477; assay: Chloramphenicol MIC with selected compound in MHB; conditions: Pseudomonas aeruginosa, FOCUSMB0477, antibiotic alone (row None), MHB
Protocol: (§1) MIC for the antibiotic alone (i.e., in the absence of the disclosed compounds) is provided in the first row labeled “None”. […] […] At this concentration (50 μg/mL), the compounds of the disclosure lacked intrinsic antibacterial activity but a significant improvement in efficacy was still observed. Thus, the compounds of the disclosure may be used to potentiate the activity of antibiotics that have lost their efficacy due to efflux.

E. coli BAA-2340 [2] = assay: Chloramphenicol MIC with selected compound in MHB; conditions: Escherichia coli, BAA2340, antibiotic alone (row None), MHB
Protocol: as §1

K. pneumoniae BAA-2342 [3] = assay: Chloramphenicol MIC with selected compound in MHB; conditions: Klebsiella pneumoniae, BAA2342, antibiotic alone (row None), MHB
From the text: (§2) MIC for the antibiotic alone (i.e., in the absence of the disclosed compounds) is provided in the first row labeled “None”. […] […] […] Thus, the compounds of the disclosure may be used to potentiate the activity of antibiotics that have lost their efficacy due to efflux.

A. baumannii MB306 = assay: Chloramphenicol MIC with selected compound in MHB; conditions: Acinetobacter baumannii, antibiotic alone (row None), MHB
From the text: as §2

E. cloacae BAA-2341 [4] = assay: Chloramphenicol MIC with selected compound in MHB; conditions: Enterobacter cloacae, BAA2341, antibiotic alone (row None), MHB
From the text: as §2

A. baumannii MB309 = assay: Chloramphenicol MIC with selected compound in MHB; conditions: Acinetobacter baumannii, antibiotic alone (row None), MHB
From the text: as §2

K. pneumoniae BAA-1705 [5] = assay: Ciprofloxacin MIC with selected compound in MHB; conditions: Klebsiella pneumoniae, BAA1705, read-out: Ciprofloxacin MIC, antibiotic alone (row None), MHB
Protocol: as §1

RAW264.7 macrophages = conditions: mouse, 16 h
From the text: (§3) Murine macrophage-like RAW 264.7 cells and HeLa human epithelial cells were obtained from the American Type Tissue Collection. BMDMs were isolated as previously described. Briefly, marrow was flushed from the femurs of 1- to 4-month-old 129SvEvTac mice (Taconic Laboratories) bred in-house. Mononuclear cells were separated using Histopaque-1083 (Sigma), washed, and directly seeded into assay plates at 1×10^5 cells/ml in complete medium supplemented with 35% conditioned media from 3T3 cells expressing MCSF. Media were refreshed three days later. After 1 week, media were replaced with 100 μL fresh media and cells were infected as described below. All three types of cells were grown in DMEM high glucose (Sigma) supplemented with 10% fetal bovine serum, 2 mM L-glutamine, 1 mM sodium pyruvate, 10 mM HEPES, and 50 μMβ-mercaptoethanol. Cells were maintained in a 5% CO2 humidified atmosphere at 37° C. For screening, frozen aliquots of RAW 264.7 were thawed and allowed to expand for three days prior to seeding; other experiments were performed with cultures between passages four and 20.
SAFIRE—RAW264.7 macrophages (7×103 in 40 μL or 5×104 in 100 μL) were seeded, respectively, in 384- or 96-well black-walled glass-bottomed plates (Brooks Automation). Twenty four hours post-seeding, bacteria in 20 or 50 μL PBS were added to a final concentration of 1×10^7 CFU/mL, conditions yielding infection of approximately 70% of macrophages at 18 hours post-infection with minimal macrophage toxicity. The sifB::gfp bacterial reporter strain was used to minimize green signal from extracellular bacteria. […] At two hours post-infection, 200 or 500 nL compound was added using a pin tool (CyBio) to yield a final concentration of 25 μM. Each assay plate included rifampicin and DMSO controls. In some experiments, media were removed and replaced with fresh media containing 40 μg/mL gentamicin and increasing concentrations of the compounds of the disclosure. At 17.5 hours post-infection, PBS containing MitoTracker Red CMXRos (Life Technologies) was added to a final concentration of 300 nM or 100 nM, for 384- or 96-well, respectively. Thirty minutes later, 16% paraformaldehyde was added to a final concentration of […] and incubated at room temperature for 15 minutes. Wells were washed twice with PBS and stained for 20 minutes with 1 μMDAPI; wells were washed twice and stored in 90% glycerol in PBS until imaging. The Z′-factor of the screening platform was 0.59 and 0.48 in 96-well and 384-well plates, respectively, within published ranges for complicated cell-based screens.
In addition, toxicity was measured according the following procedure: 1) analyzing macrophage cell morphology; and 2) using MATLAB to count cells (cells that lift up and float after treatment are not within the appropriate Z plane to be counted, and thus are considered dead). If 70% of the cells are adherent (as measured by comparing the number of cells before and after treatment), the compound is considered not toxic. Compounds that pass #1 and #2 above are considered to have a toxicity “>50 μM”. […]

E. Cloacae MB315 = assay: PMB MIC with selected compound in MHB; conditions: Enterobacter cloacae, selected compound 50 μg/mL in MHB
Protocol: as §1

[6] = tested on: S. enterica serovar Typhimurium SL1344 sifB::gfp in RAW264.7 macrophages; assay: SAFIRE assay, intracellular bacterial load in macrophages; conditions: Salmonella enterica
Protocol: The following experiments were performed using the SAFIRE assay described in U.S. Publication 2020/0022961, which is incorporated by reference in its entirety for all purposes. SAFIRE (Screen for Anti-infectives using Fluorescence microscopy of IntracellulaR Enterobacteriaceae) uses cell culture as a surrogate to identify compounds that prevent intracellular replication of a model Gram-negative bacterial human pathogen. The method identifies compounds that prevent bacterial growth in broth culture and compounds that decrease the load of Gram-negative bacteria inside of macrophages at concentrations≤10 μM but have no effect on bacterial growth in standard Mueller Hinton broth (MHB) at 100 μM. Thus, SAFIRE enables the discovery of compounds that are effective against Gram-negative bacteria in host cells and in whole animals, whether or not they are antibacterial in broth.
(§4) The wild-type S. enterica serovar Typhimurium strain, SL1344, was initially isolated from the blood of an infected calf. For screening and validation in macrophages, SL1344 sifB::gfp was grown in Luria-Bertani Broth (LB) with 30 μg/ml streptomycin and 30 μg/ml kanamycin to saturation overnight, diluted to an OD of 0.001 and frozen in 100 μL aliquots in 20% glycerol at −80° C. Prior to infection, aliquots were grown in 5 mL cultures of LB with 30 μg/ml streptomycin and 30 μg/ml kanamycin for 18 hours at 37° C. with aeration. Bacterial strains were routinely grown in LB with antibiotics: 30 μg/ml streptomycin, 30 μg/ml kanamycin, 50 μg/ml ampicillin, 10 μg/ml tetracycline, and/or 1.15 μg/ml meropenem. The acrAB::kan and macAB::kan strains were constructed according to known methods. S. enterica subsp. enterica, serovar Typhimurium strain S10801, NR-22067 is a multidrug resistant isolate from a calf with sepsis. This strain and others as indicated were obtained through BEI resources, NIAID, NIH.
as §3
SAFIRE—RAW264.7 macrophages (7×103 in 40 μL or 5×104 in 100 μL) were seeded, respectively, in 384- or 96-well black-walled glass-bottomed plates (Brooks Automation). Twenty four hours post-seeding, bacteria in 20 or 50 μL PBS were added to a final concentration of 1×10^7 CFU/mL, conditions yielding infection of approximately 70% of macrophages at 18 hours post-infection with minimal macrophage toxicity. The sifB::gfp bacterial reporter strain was used to minimize green signal from extracellular bacteria. […] At two hours post-infection, 200 or 500 nL compound was added using a pin tool (CyBio) to yield a final concentration of 25 μM. Each assay plate included rifampicin and DMSO controls. In some experiments, media were removed and replaced with fresh media containing 40 μg/mL gentamicin and increasing concentrations of the compounds of the disclosure. […]

[7] = tested on: S. enterica sp. Enterica S10801; assay: Doxycycline MIC with selected compound in MHB; conditions: Salmonella enterica, antibiotic alone (row None), MHB
Protocol: as §4
MIC for the antibiotic alone (i.e., in the absence of the disclosed compounds) is provided in the first row labeled “None”. […] At this concentration (50 μg/mL), the compounds of the disclosure lacked intrinsic antibacterial activity but a significant improvement in efficacy was still observed. […]

E. cloacae BAA-2341 [8] = assay: Doxycycline MIC with selected compound in MHB; conditions: Enterobacter cloacae, BAA2341, antibiotic alone (row None), MHB
Protocol: as §1

K. pneumoniae BAA-1705 [9] = assay: Doxycycline MIC with selected compound in MHB; conditions: Klebsiella pneumoniae, BAA1705, antibiotic alone (row None), MHB
From the text: as §2

K. pneumoniae BAA-2342 [10] = assay: Doxycycline MIC with selected compound in MHB; conditions: Klebsiella pneumoniae, BAA2342, antibiotic alone (row None), MHB
From the text: as §2

E. coli BAA-2340 [11] = assay: Doxycycline MIC with selected compound in MHB; conditions: Escherichia coli, BAA2340, antibiotic alone (row None), MHB
From the text: as §2

Row | SMILES | Toxicity (RAW264.7 macrophages) | MIC (E. Cloacae MB315) [µg/mL] | IC50 [6] [µM] | also measured
1 | O=C(N[C@H](CO)[C@H](O)c1ccc([N+](=O)[O-])cc1)C(Cl)Cl [Chloramphenicol, chloramphenicol] |  |  |  | MIC [1]: 64 µg/mL; MIC (E. coli BAA-2340 [2]): 64 µg/mL; MIC (K. pneumoniae BAA-2342 [3]): 64 µg/mL; MIC (A. baumannii MB306): > 64 µg/mL; MIC (E. cloacae BAA-2341 [4]): 16 µg/mL; MIC (A. baumannii MB309): > 64 µg/mL
2 | O=C(O)c1cn(C2CC2)c2cc(N3CCNCC3)c(F)cc2c1=O [Ciprofloxacin, ciprofloxacin] |  |  |  | MIC (K. pneumoniae BAA-1705 [5]): > 64 µg/mL
3 | NC1CCN(CC(O)COc2ccc(Cl)c(Cl)c2)C1 (centres unmarked) [Compound 1] | >50 µM | 32 | < 1 | 
4 | NC1CCN(C[C@H](O)COc2ccc(Cl)c(Cl)c2)C1 (some centres unmarked) [Compound 2] | >50 µM |  | < 1 | 
5 | NC1CCN(C[C@@H](O)COc2ccc(Cl)c(Cl)c2)C1 (some centres unmarked) [Compound 3] | >50 µM | 32 | < 1 | 
6 | NC1CCN(CC(O)COc2ccc(Cl)c(Cl)c2)CC1 (centres unmarked) [Compound 4] | <25 µM | 16 | < 1 | 
7 | OC(COc1ccc(Cl)c(Cl)c1)CN1CCC(n2ccnc2)CC1 (centres unmarked) [Compound 5] | >50 µM |  | < 1 | 
8 | NC1CCN(CC(O)COc2ccc(Cl)cc2)CC1 (centres unmarked) [Compound 6] | >50 µM |  | < 1 | 
9 | NC1CCN(CC(O)COc2ccc(Cl)cc2Cl)CC1 (centres unmarked) [Compound 7] | <50 but >25 μM | 32 | < 1 | 
10 | NC1CCN(CC(O)COc2c(Cl)cccc2Cl)CC1 (centres unmarked) [Compound 8] | >50 µM |  | < 1 | 
11 | N[C@@H]1CCN(CC(O)COc2ccc(Cl)c(Cl)c2)C1 (some centres unmarked) [Compound 9] | >50 µM |  | < 1 | 
12 | NCC1CCN(CC(O)COc2cc(Cl)cc(Cl)c2)C1 (centres unmarked) [Compound 10] | <50 but >25 μM | 32 | < 1 | 
13 | COCCCN(C)C1CCN(CC(O)COc2ccc(Cl)c(Cl)c2)CC1 (centres unmarked) [Compound 11] | >50 µM |  | < 1 | 
14 | NC1CCN(CC(O)COc2cccc(C(F)(F)F)c2)CC1 (centres unmarked) [Compound 12] | >50 µM |  | < 1 | 
15 | N[C@@H]1CCN(C[C@H](O)COc2ccc(Cl)c(Cl)c2)C1 [Compound 13] | >50 µM |  | < 1 | 
16 | N[C@H]1CCN(C[C@H](O)COc2ccc(Cl)c(Cl)c2)C1 [Compound 14] | >50 µM |  | > 1 | 
17 | N[C@@H]1CCN(C[C@@H](O)COc2ccc(Cl)c(Cl)c2)C1 [Compound 15] | >50 µM |  | < 1 | 
18 | N[C@H]1CCN(C[C@@H](O)COc2ccc(Cl)c(Cl)c2)C1 [Compound 16] | >50 µM | 32 | < 1 | 
19 | CC1(N)CCN(CC(O)COc2cc(Cl)cc(Cl)c2)CC1 (centres unmarked) [Compound 17] | <25 µM | 16 | < 1 | 
20 | OC(CN[C@H]1[C@@H]2CNC[C@@H]21)COc1cc(Cl)cc(Cl)c1 (some centres unmarked) [Compound 18] | >50 µM | 1 | < 1 | 
21 | CN(CCCCN)CC(O)COc1cc(Cl)cc(Cl)c1 (centres unmarked) [Compound 19] | <50 but >25 μM | 32 | < 1 | 
22 | C[C@H]1c2cccc(O)c2C(=O)C2=C(O)[C@]3(O)C(=O)C(C(N)=O)=C(O)[C@@H](N(C)C)[C@@H]3[C@@H](O)[C@@H]21 [Doxycycline, doxycycline] |  |  |  | MIC [7]: 32 µg/mL; MIC (E. cloacae BAA-2341 [8]): 8 µg/mL; MIC (K. pneumoniae BAA-1705 [9]): 4 µg/mL; MIC (K. pneumoniae BAA-2342 [10]): 8 µg/mL; MIC (E. coli BAA-2340 [11]): 8 µg/mL
